Data from patent US4401604A, “Process for preparing thiosulfenamide derivatives of N-phosphonomethylglycine triesters” (Monsanto Company, priority 1981, dated 1983).

Assays:
Assay type in all cases: in vivo
Barnyardgrass [1] = assay: Post-emergence herbicidal activity, greenhouse; details: Table I, 4 WAT
Excerpt: (§1) A good grade of top soil is placed in aluminum pans having holes in the bottom and compacted to a depth of 0.95 to 1.27 cm. from the top of the pan. A predetermined number of seeds of each of several dicotyledonous and monocotyledonous annual plant species and/or vegetative propagules for the perennial plant species are placed on the soil and pressed into the soil surface. The seeds and/or vegetative propagules are covered with soil and leveled. The pans are then placed on a sand bench in the greenhouse and watered from below as needed. After the plants reach the desired age (two to three weeks), each pan except for the control pans is removed individually to a spraying chamber and sprayed by means of an atomizer operating at a positive air pressure of approximately 1.46 kg/cm^2 absolute. The atomizer contains 6 ml. of a solution or suspension of the chemical. In that 6 ml., is an amount of a cyclohexanone emulsifying agent mixture to give a spray solution or suspension which contains about 0.4% by weight of the emulsifier. The spray solution or suspension contains a sufficient amount of the candidate chemical in order to give application rates corresponding to those set forth in the tables. The spray solution is prepared by taking an aliquot of a 1.0% by weight stock solution or suspension of the candidate chemical in an organic solvent such as acetone or tetrahydrofuran or in water. The emulsifying agent employed is a mixture comprising 35 weight percent butylamine dodecylbenzene sulfonate and 65 weight percent of a tall oil ethylene oxide condensate having about 11 moles of ethylene oxide per mole of tall oil. The pans are returned to the greenhouse and watered as before and the injury to the plants as compared to the control is observed at approximately two and four weeks as indicated in the tables under WAT and the results recorded. In some instances, the two-week observations are omitted.
(§2) The post-emergence herbicidal activity index used in Table I is as follows:
(§3) The plant species utilized in these tests are identified by letter in accordance with the following legend: […]

Quackgrass [2] = assay: Post-emergence herbicidal activity, greenhouse; details: Table I, 4 WAT
Excerpt: as §1, §2, §3

Johnsongrass [3] = assay: Post-emergence herbicidal activity, greenhouse; details: Table I, 4 WAT
Excerpt: as §1, §2, §3

Downy Brome [4] = assay: Post-emergence herbicidal activity, greenhouse; details: Table I, 4 WAT
Excerpt: as §1, §2, §3

Velvetleaf [5] = assay: Post-emergence herbicidal activity, greenhouse; details: Table I, 4 WAT
Excerpt: as §1, §2, §3

Morningglory [6] = assay: Post-emergence herbicidal activity, greenhouse; details: Table I, 4 WAT
Excerpt: as §1, §2, §3

Canada Thistle [7] = assay: Post-emergence herbicidal activity, greenhouse; details: Table I, 4 WAT
Excerpt: as §1, §2, §3

Cocklebur [8] = assay: Post-emergence herbicidal activity, greenhouse; details: Table I, 4 WAT
Excerpt: as §1, §2, §3

Yellow Nutsedge [9] = assay: Post-emergence herbicidal activity, greenhouse; details: Table I, 4 WAT
Excerpt: as §1, §2, §3

Smartweed [10] = assay: Post-emergence herbicidal activity, greenhouse; details: Table I, 4 WAT
Excerpt: as §1, §2, §3

Lambsquarters [11] = assay: Post-emergence herbicidal activity, greenhouse; details: Table I, 4 WAT
Excerpt: as §1, §2, §3

Barnyardgrass [12] = assay: Pre-emergent herbicidal activity; details: Table III; 11.2 kg/h; 2 WAT
Excerpt: (§4) A good grade of top soil is placed in aluminum pans and compacted to a depth of 0.95 to 1.27 cm. from the top of each pan. A predetermined number of seeds or vegetative propagules of each of several plant species are placed on top of the soil in each pan and then pressed down. Herbicidal compositions prepared as in the previous example are applied by admixture with or incorporation in the top layer of soil.
(§5) In this method, the soil required to cover the seeds and propagules is weighed and admixed with a herbicidal composition containing a known amount of the active ingredient (compound of this invention). The pans are then filled with the admixture and leveled. Watering is carried out by permitting the soil in the pans to absorb moisture through apertures in the pan bottoms. The seed and propagule containing pans are placed on a wet sand bench and maintained for approximately two weeks under ordinary conditions of sunlight and watering. At the end of this period, the number of emerged plants of each species is noted and compared to an untreated control.
(§6) The pre-emergent herbicidal activity index used below is based upon average percent control of each species as follows:
(§7) Plant species in the table are identified by the same code letters used in the previous example.

Quackgrass [13] = assay: Pre-emergent herbicidal activity; details: Table III; 11.2 kg/h; 2 WAT
Excerpt: as §4, §5, §6, §7

Johnsongrass [14] = assay: Pre-emergent herbicidal activity; details: Table III; 11.2 kg/h; 2 WAT
Excerpt: as §4, §5, §6, §7

Downy Brome [15] = assay: Pre-emergent herbicidal activity; details: Table III; 11.2 kg/h; 2 WAT
Excerpt: as §4, §5, §6, §7

Velvetleaf [16] = assay: Pre-emergent herbicidal activity; details: Table III; 11.2 kg/h; 2 WAT
Excerpt: as §4, §5, §6, §7

Morningglory [17] = assay: Pre-emergent herbicidal activity; details: Table III; 11.2 kg/h; 2 WAT
Excerpt: as §4, §5, §6, §7

Canada Thistle [18] = assay: Pre-emergent herbicidal activity; details: Table III; 11.2 kg/h; 2 WAT
Excerpt: as §4, §5, §6, §7

Cocklebur [19] = assay: Pre-emergent herbicidal activity; details: Table III; 11.2 kg/h; 2 WAT
Excerpt: as §4, §5, §6, §7

Yellow Nutsedge [20] = assay: Pre-emergent herbicidal activity; details: Table III; 11.2 kg/h; 2 WAT
Excerpt: as §4, §5, §6, §7

Smartweed [21] = assay: Pre-emergent herbicidal activity; details: Table III; 11.2 kg/h; 2 WAT
Excerpt: as §4, §5, §6, §7

Lambsquarters [22] = assay: Pre-emergent herbicidal activity; details: Table III; 11.2 kg/h; 2 WAT
Excerpt: as §4, §5, §6, §7

## O=C(CN(CP(=O)(Oc1ccccc1)Oc1ccccc1)SSC1CCCCC1)OCc1ccccc1 [III, Glycine, N-(cyclohexyldithio)-N-[(diphenoxyphosphinyl)methyl]-, phenylmethyl ester]
Barnyardgrass [1]; 5.6 kg/h
  post-emergence herbicidal activity index: 2 (50-74% control)
Barnyardgrass [1]; 11.2 kg/h
  post-emergence herbicidal activity index: 2 (50-74% control)
Quackgrass [2]; 5.6 kg/h
  post-emergence herbicidal activity index: 1 (25-49% control)
Quackgrass [2]; 11.2 kg/h
  post-emergence herbicidal activity index: 2 (50-74% control)
Johnsongrass [3]; 5.6 kg/h
  post-emergence herbicidal activity index: 1 (25-49% control)
Johnsongrass [3]; 11.2 kg/h
  post-emergence herbicidal activity index: 1 (25-49% control)
Downy Brome [4]; 5.6 kg/h
  post-emergence herbicidal activity index: 1 (25-49% control)
Downy Brome [4]; 11.2 kg/h
  post-emergence herbicidal activity index: 1 (25-49% control)
Velvetleaf [5]; 5.6 kg/h
  post-emergence herbicidal activity index: 0 (0- 24% control)
Velvetleaf [5]; 11.2 kg/h
  post-emergence herbicidal activity index: 1 (25-49% control)
Morningglory [6]; 5.6 kg/h
  post-emergence herbicidal activity index: 1 (25-49% control)
Morningglory [6]; 11.2 kg/h
  post-emergence herbicidal activity index: 2 (50-74% control)
Canada Thistle [7]; 5.6 kg/h
  post-emergence herbicidal activity index: 1 (25-49% control)
Canada Thistle [7]; 11.2 kg/h
  post-emergence herbicidal activity index: 0 (0- 24% control)
Cocklebur [8]; 5.6 kg/h
  post-emergence herbicidal activity index: 1 (25-49% control)
Cocklebur [8]; 11.2 kg/h
  post-emergence herbicidal activity index: 2 (50-74% control)
Yellow Nutsedge [9]; 5.6 kg/h
  post-emergence herbicidal activity index: 0 (0- 24% control)
Yellow Nutsedge [9]; 11.2 kg/h
  post-emergence herbicidal activity index: 0 (0- 24% control)
Smartweed [10]; 5.6 kg/h
  post-emergence herbicidal activity index: 2 (50-74% control)
Smartweed [10]; 11.2 kg/h
  post-emergence herbicidal activity index: 1 (25-49% control)
Lambsquarters [11]; 5.6 kg/h
  post-emergence herbicidal activity index: 2 (50-74% control)
Lambsquarters [11]; 11.2 kg/h
  post-emergence herbicidal activity index: 2 (50-74% control)
Barnyardgrass [12]
  pre-emergent herbicidal activity index: 0 (0-24% control)
Quackgrass [13]
  pre-emergent herbicidal activity index: 0 (0-24% control)
Johnsongrass [14]
  pre-emergent herbicidal activity index: 0 (0-24% control)
Downy Brome [15]
  pre-emergent herbicidal activity index: 0 (0-24% control)
Velvetleaf [16]
  pre-emergent herbicidal activity index: 0 (0-24% control)
Morningglory [17]
  pre-emergent herbicidal activity index: 0 (0-24% control)
Canada Thistle [18]
  pre-emergent herbicidal activity index: 1 (25-49% control)
Cocklebur [19]
  pre-emergent herbicidal activity index: 0 (0-24% control)
Yellow Nutsedge [20]
  pre-emergent herbicidal activity index: 0 (0-24% control)
Smartweed [21]
  pre-emergent herbicidal activity index: 0 (0-24% control)
Lambsquarters [22]
  pre-emergent herbicidal activity index: 0 (0-24% control)
